Tests used:
B16F10 melanoma cells = experiment: MTT antiproliferative assay, B16F10; assay type: cell-based; details: Mus musculus, B16-F10, Table 2, 48 h, read-out: GI50 in vitro values, B16F10
Description: (§1) To evaluate antiproliferative properties of the compounds of Formula I, mitochondrial dehydrogenase activities were measured using the MTT assay. The cell lines were prepared by trypsinizing and seeding […] cells per well into microplates. All compounds were reconstituted in dimethyl sulfoxide (DMSO) at a concentration of either 100 mM or 25 mM prior to treatment. The cells were grown for 24 hrs before treatment at concentrations ranging from 0.004 to 100 microM and incubated for 48 hrs in 200 microL media. 20 microL of MTT reagent in serum free medium (5 mg/mL) was added to each well and incubated further for 2 hrs. Media was removed and the resulting formazan crystals were re-solubilized in 100 microL of DMSO and the optical density (OD) was measured using a Thermomax Molecular Device plate reader at a wavelength of 490 nm. The experiments were performed in quadruplicate and repeated at least twice for each compound per cell line. Cells treated with 0.1% DMSO were used as a negative control, while phenyl arsine oxide (PAO) was used as a positive killing control.

[1] = system: MES-SA/Dx5 uterine sarcoma cells (overexpress p-gp); experiment: MTT antiproliferative assay, MDR MES-SA/Dx5; assay type: cell-based, human
Description: Human T-cell leukemia cell line Jurkat (ATCC TIB-152, E6-1 clone) was cultured in RPMI-1640 (Invitrogen) supplemented with 10% FBS (Invitrogen), 100 mg/L penicillin G, 100 mg/L streptomycin, 1.0 mM sodium pyruvate, 1.5 g/L sodium bicarbonate, and 4.5 g/L glucose (all from Sigma). Human cervical cancer cell line HeLa (ATCC S3) was cultured in DMEM (Invitrogen) supplemented with 10% FBS, 100 mg/L penicillin G, and 100 mg/L streptomycin. MCF-7 (human mammary carcinoma) cells were cultured in DMEM supplemented with 1.0 mM sodium pyruvate, 1% GlutaMax™-1 (Invitrogen), 100 μg/mL penicillin, 100 μg/mL streptomycin, and 10% FBS. Human uterine sarcoma MES-SA and MES-SA/Dx5 cells were cultured in RPMI-1640 medium supplemented with 10% FBS, 100 mg/L penicillin G and 100 mg/L streptomycin. All cells were incubated at 37° C. in a humidified atmosphere with 5% CO2. The other cell lines were maintained in a similar fashion as previously described.
as §1
The cells of such tumors are referred to as multidrug resistant (MDR). Thus, we assessed the compounds of Formula I for antiproliferative activity in an MDR cancer cell line. This was done using the uterine sarcoma cells, MES-SA/Dx5, which overexpress p-gp. The parental drug-responsive MES-SA cell line was used as control.

[2] = system: Hs683 anaplastic oligodendroglioma cells; experiment: MTT antiproliferative assay, Hs683; assay type: cell-based; details: Homo sapiens, Hs 683, Table 2, 48 h, read-out: GI50 in vitro values, Hs683
Description: as §1

[3] = system: HeLa cervical adenocarcinoma cells; experiment: MTT antiproliferative assay, HeLa; assay type: cell-based; details: Homo sapiens, Table 1, 48 h treatment, MTT, ± SD, read-out: GI50 in vitro Values, HeLa
In short: (§2)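 Cells were seeded at 4×10^3 per well, grown 24 h, then treated at 0.04–100 μM for 48 h; HeLa in DMEM and MCF-7 in RPMI, each with 10% FBS. MTT for 2 h, formazan dissolved in DMSO, A490 read; quadruplicate, at least two repeats, 0.1% DMSO vehicle control and 1 μM phenyl arsine oxide as positive killing control.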

[4] = system: A549 non-small-cell lung cancer cells; experiment: MTT antiproliferative assay, A549; assay type: cell-based; details: Homo sapiens, Table 2, 48 h, read-out: GI50 in vitro values, A549
Description: as §1
(§3) Human cancer cell lines were obtained from the American Type Culture Collection (ATCC, Manassas, Va., USA), the European Collection of Cell Culture (ECACC, Salisbury, UK) and the Deutsche Sammlung von Mikroorganismen and Zellkulturen (DSMZ, Braunschweig, Germany). Human cervical adenocarcinoma HeLa cells were cultured in DMEM supplemented with 10% fetal bovine serum (FBS). Human mammary carcinoma MCF-7 cells were cultured in RPMI supplemented with 10% FBS. The U87 and U373 cells were cultured in DMEM culture medium (Lonza code 12-136F, Vervier, Belgium), while the SKMEL-28 and A549 cells were cultured in RPMI culture medium (Lonza; code 12-115F) supplemented with 10% heat-inactivated FBS (Lonza, FBS South America code DE14-801F). […] All cell lines were cultured in T25 flasks, maintained and grown at 37° C., 95% humidity, 5% CO2.
(§4) To evaluate antiproliferative properties of the synthesized compounds, the MTT assay was used. The cell lines were assessed by trypsinizing each cell line and seeding 4×10^3 cells per well into 96-well plates. All compounds were dissolved in DMSO at a concentration of either 100 mM or 50 mM prior to cell treatment. The cells were grown for 24 h and then treated with compounds at concentrations ranging from 0.04 to 100 μM and incubated for 48 h in 200 μL media. 20 μL of MTT reagent in serum free medium (5 mg/mL) was added to each well and incubated further for 2 h. Media was removed, and the resulting formazan crystals were re-solubilized in 200 μL of DMSO. A490 was measured using a Thermomax Molecular Device plate reader. The experiments were performed in quadruplicate and repeated at least twice for each compound per cell line. Cells treated with 0.1% DMSO were used as a control, and 1 μM phenyl arsine oxide (PAO) was used as a positive killing control.

[5] = system: UM-SCC22A head and neck cancer cells; experiment: MTT antiproliferative assay, UM-SCC22A; assay type: cell-based; details: Table 1A, 48 h, read-out: Concentration required to reduce the viability of cells by 50%, UM-SCC22A
Description: as §1

[6] = system: MCF-7 mammary gland adenocarcinoma cells; experiment: MTT antiproliferative assay, MCF-7; assay type: cell-based; details: Homo sapiens, MCF7; Table 1; 48 h treatment, MTT, ± SD; read-out: GI50 in vitro Values, MCF-7
In short: as §2

[7] = system: UM-SCC22B head and neck metastases cells; experiment: MTT antiproliferative assay, UM-SCC22B; assay type: cell-based; details: Homo sapiens, UMSCC22B, Table 1A, 48 h, read-out: Concentration required to reduce the viability of cells by 50%, UM-SCC22B
Description: as §1

[8] = system: UM-SCC10A head and neck cancer cells; experiment: MTT antiproliferative assay, UM-SCC10A; assay type: cell-based; details: UMSCC-10A, Table 1A, 48 h, read-out: Concentration required to reduce the viability of cells by 50%, UM-SCC10A
Description: as §1

SKMEL-28 melanoma cells = experiment: MTT antiproliferative assay, SKMEL-28; assay type: cell-based, human; details: Homo sapiens, SK-MEL-28; Table 2; 48 h, MTT; read-out: GI50 in vitro values, SKMEL-28
Description: as §1, §3
as §4, with “Cells treated with 0.1% DMSO were used as a control, and 1 μM phenyl arsine oxide (PAO) was used as a positive killing control.” left out

U373 glioblastoma cells = experiment: MTT antiproliferative assay, U373; assay type: cell-based, human; details: Homo sapiens, U373 MG; Table 2; 48 h, MTT; read-out: GI50 in vitro values, U373
Description: as §1, §3
as §4, with “Cells treated with 0.1% DMSO were used as a control, and 1 μM phenyl arsine oxide (PAO) was used as a positive killing control.” left out

GI50 (B16F10 melanoma cells): 0.05 µM
GI50 ([1]; Homo sapiens, MES-SA/Dx5, Table 3, MDR cell line, read-out: GI50 in vitro Values, MES-SA/Dx5): 0.394 ± 0.01 µM
GI50 [2]: 0.02 µM
GI50 [3]: 0.095 ± 0.04 µM
GI50 [4]: 0.03 µM
IC50 [5]: 0.11 µM
GI50 [6]: 0.095 ± 0.01 µM
IC50 [8]: 0.09 µM
GI50 (SKMEL-28 melanoma cells): 0.02 µM
GI50 (U373 glioblastoma cells): 0.03 µM
Structure (SMILES): O=C(c1ccccc1)c1[nH]c2[nH]cnc(=O)c2c1-c1cc(Br)cc(Br)c1 [Rig8, 6-Benzoyl-5-(3,5-dibromophenyl)-1H-pyrrolo[2,3-d]pyrimidin-4(7H)-one]
variation in the sensitivities of the parental and MDR cell lines ([1]; MES-SA/Dx5 vs MES-SA, in words): only a small variation
IC50 [7]: 0.02 µM

Source: patent publication US9334280B2, “Synthetic rigidin analogues as anticancer agents, salts, solvates and prodrugs thereof, and method of producing same” (New Mexico Technical Research Foundation, priority 2012, dated 2016)
